According to BigSolDB 2.1:

CC(C)(C)C(=O)C(Oc1ccc(Cl)cc1)n1ccnc1 (stereo not drawn)
solubility (mole fraction)
Details | in acetone | in acetonitrile | in ethanol | in ethyl acetate | in isobutanol | in methanol | in methyl acetate | in n-butanol | in n-butyl acetate
288.15 K | 0.147 | 0.0724 | 0.112 | 0.0909 | 0.098 | 0.161 | 0.0955 | 0.111 | 0.088
293.15 K | 0.164 | 0.083 | 0.132 | 0.105 | 0.112 | 0.181 | 0.109 | 0.131 | 0.0994
298.15 K | 0.185 | 0.103 | 0.157 | 0.126 | 0.137 | 0.204 | 0.129 | 0.152 | 0.115
303.15 K | 0.207 | 0.129 | 0.185 | 0.151 | 0.161 | 0.226 | 0.156 | 0.181 | 0.142
308.15 K | 0.235 | 0.158 | 0.211 | 0.172 | 0.192 | 0.255 | 0.179 | 0.205 | 0.163
313.15 K | 0.259 | 0.19 | 0.25 | 0.202 | 0.22 | 0.28 | 0.214 | 0.245 | 0.192
318.15 K | 0.301 | 0.222 | 0.288 | 0.239 | 0.26 | 0.318 | 0.251 | 0.283 | 0.227
